Test results published in PubChem BioAssay AID2060501 (Molecular Pharmacology Branch, DTP, NCI, 2025).

System: 282377-053-R-J1-PDC complex spheroids, viability
Test: Anticancer human tumor 282377-053-R-J1-PDC patient-derived colon adenocarcinoma cell line growth inhibition [GQUAD]
Conditions: for IC50: curve of first compound; for viability, T/C: stronger effect = lower value; active means viability on the fitted dose curve at most 10% of control; inactive means the rest
Outline: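 Viability of tumor cells grown as complex spheroids with endothelial and stromal cells, exposed to drug combinations. Top concentration at or near clinical Cmax (else 10 microM), diluted in half-log increments.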

[1] = second compound 0.0316 µM, first compound 0.0316 µM
[2] = second compound 0.0316 µM, first compound 0.1 µM
[3] = second compound 0.0316 µM, first compound 0.316 µM
[4] = second compound 0.0316 µM, first compound 1 µM
[5] = second compound 0.0316 µM, first compound 3.16 µM
[6] = second compound 0.0316 µM, first compound 10 µM
[7] = second compound 0.1 µM, first compound 0.0316 µM
[8] = second compound 0.1 µM, first compound 0.1 µM
[9] = second compound 0.1 µM, first compound 0.316 µM
[10] = second compound 0.1 µM, first compound 1 µM
[11] = second compound 0.1 µM, first compound 3.16 µM
[12] = second compound 0.1 µM, first compound 10 µM
[13] = second compound 0.316 µM, first compound 0.0316 µM
[14] = second compound 0.316 µM, first compound 0.1 µM
[15] = second compound 0.316 µM, first compound 0.316 µM
[16] = second compound 0.316 µM, first compound 1 µM
[17] = second compound 0.316 µM, first compound 3.16 µM
[18] = second compound 0.316 µM, first compound 10 µM
[19] = second compound 1 µM, first compound 0.0316 µM
[20] = second compound 1 µM, first compound 0.1 µM
[21] = second compound 1 µM, first compound 0.316 µM
[22] = second compound 1 µM, first compound 1 µM
[23] = second compound 1 µM, first compound 3.16 µM
[24] = second compound 1 µM, first compound 10 µM
[25] = second compound 3.16 µM, first compound 0.0316 µM
[26] = second compound 3.16 µM, first compound 0.1 µM
[27] = second compound 3.16 µM, first compound 0.316 µM
[28] = second compound 3.16 µM, first compound 1 µM
[29] = second compound 3.16 µM, first compound 3.16 µM
[30] = second compound 3.16 µM, first compound 10 µM
[31] = second compound 10 µM, first compound 0.0316 µM
[32] = second compound 10 µM, first compound 0.1 µM
[33] = second compound 10 µM, first compound 0.316 µM
[34] = second compound 10 µM, first compound 1 µM
[35] = second compound 10 µM, first compound 3.16 µM
[36] = second compound 10 µM, first compound 10 µM
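Further: spheroids exposed to compounds for 7 days before readout.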
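Wherever viability, T/C is given: percent of vehicle DMSO control viability with 100% = untreated-like growth.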

C#Cc1c(F)ccc2cc(O)cc(-c3ncc4c(N5CC6CCC(C5)N6)nc(OCC56CCCN5CC(F)C6)nc4c3F)c12 (stereo not given) + Cc1[nH]c2ccc(F)cc2c1-c1nc2c3cccnc3c3ncccc3c2[nH]1
825 nM: IC50 (second compound 1 µM)
< 31.6 nM: IC50 (second compound 10 µM)
1370 nM: IC50 (second compound 0.316 µM)
active: viability, T/C [23] 6.79% | viability, T/C [24] 6.81% | viability, T/C [28] 3.57% | viability, T/C [29] 1.91% | viability, T/C [30] 1.84% | viability, T/C [33] 14.7% | viability, T/C [34] 2.45% | viability, T/C [35] 1.52% | viability, T/C [36] 1.43%
35.9 nM: IC50 (second compound 3.16 µM)
inactive: viability, T/C [1] 108% | viability, T/C [2] 95.5% | viability, T/C [3] 82.2% | viability, T/C [4] 83.2% | viability, T/C [5] 20.6% | viability, T/C [6] 26% | viability, T/C [7] 104% | viability, T/C [8] 114% | viability, T/C [9] 98.3% | viability, T/C [10] 59.6% | viability, T/C [11] 13.2% | viability, T/C [12] 22.9% | viability, T/C [13] 96.9% | viability, T/C [14] 102% | viability, T/C [15] 90.4% | viability, T/C [16] 64.4% | viability, T/C [17] 9.13% | viability, T/C [18] 13.3% | viability, T/C [19] 105% | viability, T/C [20] 110% | viability, T/C [21] 102% | viability, T/C [22] 39.5% | viability, T/C [25] 52.7% | viability, T/C [26] 28.4% | viability, T/C [27] 15.7% | viability, T/C [31] 34.4% | viability, T/C [32] 15.4%
1890 nM: IC50 (second compound 0.0316 µM)
1280 nM: IC50 (second compound 0.1 µM)

CC(=O)O[C@H]1C(=O)[C@@]2(C)[C@H]([C@H](OC(=O)c3ccccc3)[C@]3(O)C[C@H](OC(=O)[C@H](O)[C@@H](NC(=O)c4ccccc4)c4ccccc4)C(C)=C1C3(C)C)[C@]1(OC(C)=O)CO[C@@H]1C[C@@H]2O + Cc1[nH]c2ccc(F)cc2c1-c1nc2c3cccnc3c3ncccc3c2[nH]1
424 nM: IC50 (second compound 3.16 µM)
inactive: viability, T/C [1] 115% | viability, T/C [2] 112% | viability, T/C [3] 84.6% | viability, T/C [7] 108% | viability, T/C [8] 107% | viability, T/C [9] 106% | viability, T/C [13] 107% | viability, T/C [14] 111% | viability, T/C [15] 79.5% | viability, T/C [16] 10.8% | viability, T/C [19] 116% | viability, T/C [20] 90.3% | viability, T/C [21] 110% | viability, T/C [25] 92.8% | viability, T/C [26] 109% | viability, T/C [27] 66% | viability, T/C [31] 36.7% | viability, T/C [32] 43.9% | viability, T/C [33] 59.1% | viability, T/C [34] 10.1%
617 nM: IC50 (second compound 1 µM)
< 31.6 nM: IC50 (second compound 10 µM)
519 nM: IC50 (second compound 0.0316 µM) | IC50 (second compound 0.316 µM)
active: viability, T/C [4] 4.01% | viability, T/C [5] 0.1% | viability, T/C [6] 0.12% | viability, T/C [10] 3.64% | viability, T/C [11] 0.06% | viability, T/C [12] 0.09% | viability, T/C [17] 0.05% | viability, T/C [18] 0.21% | viability, T/C [22] 9.92% | viability, T/C [23] 0.04% | viability, T/C [24] 0.07% | viability, T/C [28] 4.89% | viability, T/C [29] 0.11% | viability, T/C [30] 0.1% | viability, T/C [35] 0.17% | viability, T/C [36] 0.46%
584 nM: IC50 (second compound 0.1 µM)

CCCS(=O)(=O)Nc1ccc(F)c(C(=O)c2c[nH]c3ncc(-c4ccc(Cl)cc4)cc23)c1F + Cc1[nH]c2ccc(F)cc2c1-c1nc2c3cccnc3c3ncccc3c2[nH]1
2130 nM: IC50 (second compound 0.1 µM)
active: viability, T/C [30] 6.19% | viability, T/C [36] 4.48%
inactive: viability, T/C [1] 95.9% | viability, T/C [2] 90.4% | viability, T/C [3] 95.1% | viability, T/C [4] 92.5% | viability, T/C [5] 30.9% | viability, T/C [6] 14.5% | viability, T/C [7] 130% | viability, T/C [8] 114% | viability, T/C [9] 89% | viability, T/C [10] 81.2% | viability, T/C [11] 31.7% | viability, T/C [12] 13.2% | viability, T/C [13] 96.4% | viability, T/C [14] 83.7% | viability, T/C [15] 81.8% | viability, T/C [16] 91.4% | viability, T/C [17] 30.5% | viability, T/C [18] 16.1% | viability, T/C [19] 108% | viability, T/C [20] 120% | viability, T/C [21] 74.3% | viability, T/C [22] 93.2% | viability, T/C [23] 23.9% | viability, T/C [24] 11.8% | viability, T/C [25] 89.2% | viability, T/C [26] 66.7% | viability, T/C [27] 71.9% | viability, T/C [28] 45.3% | viability, T/C [29] 9.06% | viability, T/C [31] 33.6% | viability, T/C [32] 31.9% | viability, T/C [33] 23.1% | viability, T/C [34] 22.8% | viability, T/C [35] 3.93%
781 nM: IC50 (second compound 3.16 µM)
2210 nM: IC50 (second compound 0.0316 µM)
2040 nM: IC50 (second compound 1 µM)
< 31.6 nM: IC50 (second compound 10 µM)
2150 nM: IC50 (second compound 0.316 µM)

COc1cccc2c1C(=O)c1c(O)c3c(c(O)c1C2=O)CC(O)(C(=O)CO)CC3OC1CC(N)C(O)C(C)O1 (stereo not given) + Cc1[nH]c2ccc(F)cc2c1-c1nc2c3cccnc3c3ncccc3c2[nH]1
1080 nM: IC50 (second compound 0.316 µM)
< 31.6 nM: IC50 (second compound 10 µM)
222 nM: IC50 (second compound 3.16 µM)
1320 nM: IC50 (second compound 0.1 µM)
inactive: viability, T/C [1] 108% | viability, T/C [2] 99.2% | viability, T/C [3] 86.4% | viability, T/C [4] 64.1% | viability, T/C [5] 18.5% | viability, T/C [7] 94.4% | viability, T/C [8] 114% | viability, T/C [9] 81.3% | viability, T/C [10] 64% | viability, T/C [11] 16.8% | viability, T/C [13] 98.1% | viability, T/C [14] 129% | viability, T/C [15] 83.4% | viability, T/C [16] 54% | viability, T/C [17] 16.8% | viability, T/C [19] 106% | viability, T/C [20] 116% | viability, T/C [21] 85.3% | viability, T/C [22] 47.3% | viability, T/C [23] 22% | viability, T/C [25] 78% | viability, T/C [26] 74.3% | viability, T/C [27] 32% | viability, T/C [28] 29.8% | viability, T/C [31] 36.5% | viability, T/C [32] 47.2% | viability, T/C [33] 23.8% | viability, T/C [34] 18.4%
active: viability, T/C [6] 1.16% | viability, T/C [12] 1.17% | viability, T/C [18] 0.84% | viability, T/C [24] 0.99% | viability, T/C [29] 9.5% | viability, T/C [30] 0.94% | viability, T/C [35] 7.13% | viability, T/C [36] 0.99%
991 nM: IC50 (second compound 1 µM)
1350 nM: IC50 (second compound 0.0316 µM)

O=c1[nH]cc(F)c(=O)[nH]1 + Cc1[nH]c2ccc(F)cc2c1-c1nc2c3cccnc3c3ncccc3c2[nH]1
inactive: viability, T/C [1] 92.8% | viability, T/C [2] 104% | viability, T/C [3] 126% | viability, T/C [4] 88.8% | viability, T/C [5] 78.2% | viability, T/C [6] 74% | viability, T/C [7] 110% | viability, T/C [8] 111% | viability, T/C [9] 114% | viability, T/C [10] 87.5% | viability, T/C [11] 84.1% | viability, T/C [12] 82% | viability, T/C [13] 115% | viability, T/C [14] 106% | viability, T/C [15] 93.7% | viability, T/C [16] 95.1% | viability, T/C [17] 75.8% | viability, T/C [18] 69.3% | viability, T/C [19] 108% | viability, T/C [20] 112% | viability, T/C [21] 117% | viability, T/C [22] 91.2% | viability, T/C [23] 76.4% | viability, T/C [24] 68.4% | viability, T/C [25] 75.7% | viability, T/C [26] 80.2% | viability, T/C [27] 72% | viability, T/C [28] 49.9% | viability, T/C [29] 58.8% | viability, T/C [30] 54.1% | viability, T/C [31] 41.1% | viability, T/C [32] 40.5% | viability, T/C [33] 50.8% | viability, T/C [34] 42% | viability, T/C [35] 40% | viability, T/C [36] 34.4%
> 10000 nM: IC50 (second compound 0.0316 µM) | IC50 (second compound 0.1 µM) | IC50 (second compound 0.316 µM) | IC50 (second compound 1 µM) | IC50 (second compound 3.16 µM)
< 31.6 nM: IC50 (second compound 10 µM)
